# Laboratory results taken from patent US10106556B2, “Heterocyclic compound” (TAKEDA PHARMACEUTICAL COMPANY LIMITED, priority 2015, dated 2018).
# Target: T1, His-hMAGL (recombinant polyhistidine tagged human MAGL protein) (Homo sapiens, UniProt Q99685)
# T1 construct: made in house; host or cells: E. coli BL21(DE3)
# T1 sequence (Q99685 1-303): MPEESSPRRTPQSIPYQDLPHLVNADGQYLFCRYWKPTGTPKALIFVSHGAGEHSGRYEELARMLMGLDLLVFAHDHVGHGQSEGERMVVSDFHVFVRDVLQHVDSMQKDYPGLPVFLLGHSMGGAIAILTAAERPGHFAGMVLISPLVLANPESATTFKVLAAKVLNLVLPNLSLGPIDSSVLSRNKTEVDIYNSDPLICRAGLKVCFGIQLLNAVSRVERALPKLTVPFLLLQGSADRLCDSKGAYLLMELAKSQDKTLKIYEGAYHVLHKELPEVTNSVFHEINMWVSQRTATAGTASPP
# Experiment: Measurement of MAGL inhibitory activity (arachidonic acid production from 2-arachidonylglycerol, RapidFire-mass spectrometry)
# Format: biochemical
# Conditions: MAGL inhibitory rate at 10 μM test compound; 60 min preincubation with His-hMAGL, 2-arachidonylglycerol substrate, 10 min reaction at room temperature
# Procedure, shortened: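 Recombinant His-tagged human MAGL converted 2-arachidonylglycerol to arachidonic acid. Reactions received acetonitrile with 3 μM arachidonic acid-d8 as internal standard, and product was quantified by RapidFire SPE (C4) with negative-mode SRM mass spectrometry. Percent inhibition was calculated against compound-free and enzyme-free controls.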
row,Structure (SMILES),inhibition at 10 µM [%]
1,"N#Cc1cc(OCC2CN(C(=O)c3cc4c(cc3F)OCC(=O)N4)C2)ccc1Cl [Example 133, 2-chloro-5-((1-((7-fluoro-3-oxo-3,4-dihydro-2H-1,4-benzoxazin-6-yl)carbonyl)azetidin-3-yl)methoxy)benzonitrile]",98
2,"O=C1COc2cc(F)c(C(=O)N3CC(COc4cc(F)cc(Cl)c4)C3)cc2N1 [Example 134, 6-((3-((3-chloro-5-fluorophenoxy)methyl)azetidin-1-yl)carbonyl)-7-fluoro-2H-1,4-benzoxazin-3(4H)-one]",102
3,"O=C1COc2cc(F)c(C(=O)N3CC(COc4cccc(Cl)c4F)C3)cc2N1 [Example 135, 6-((3-((3-chloro-2-fluorophenoxy)methyl)azetidin-1-yl)carbonyl)-7-fluoro-2H-1,4-benzoxazin-3(4H)-one]",101
4,"O=C1COc2cc(F)c(C(=O)N3CC(COc4c(F)cccc4Cl)C3)cc2N1 [Example 136, 6-((3-((2-chloro-6-fluorophenoxy)methyl)azetidin-1-yl)carbonyl)-7-fluoro-2H-1,4-benzoxazin-3(4H)-one]",98
5,"N#Cc1ccc(Cl)cc1OCC1CN(C(=O)c2cc3c(cc2F)OCC(=O)N3)C1 [Example 137, 4-chloro-2-((1-((7-fluoro-3-oxo-3,4-dihydro-2H-1,4-benzoxazin-6-yl)carbonyl)azetidin-3-yl)methoxy)benzonitrile]",99
6,"N#Cc1ccc(OCC2CN(C(=O)c3cc4c(cc3F)OCC(=O)N4)C2)cc1Cl [Example 138, 2-chloro-4-((1-((7-fluoro-3-oxo-3,4-dihydro-2H-1,4-benzoxazin-6-yl)carbonyl)azetidin-3-yl)methoxy)benzonitrile]",100
7,"O=C1COc2cc(F)c(C(=O)N3CC(COc4cccc5nccnc45)C3)cc2N1 [Example 139, 7-fluoro-6-((3-((quinoxalin-5-yloxy)methyl)azetidin-1-yl)carbonyl)-2H-1,4-benzoxazin-3(4H)-one]",92
8,"O=C1COc2cc(F)c(C(=O)N3CC(COc4ccccc4)C3)cc2N1 [Example 140, 7-fluoro-6-((3-(phenoxymethyl)azetidin-1-yl)carbonyl)-2H-1,4-benzoxazin-3(4H)-one]",100
9,"Cc1ccc(OCC2CN(C(=O)c3cc4c(cc3F)OCC(=O)N4)C2)c(C)n1 [Example 141, 6-((3-(((2,6-dimethylpyridin-3-yl)oxy)methyl)azetidin-1-yl)carbonyl)-7-fluoro-2H-1,4-benzoxazin-3(4H)-one]",102
10,"Cc1cc(C)c(OCC2CN(C(=O)c3cc4c(cc3F)OCC(=O)N4)C2)cn1 [Example 142, 6-((3-(((4,6-dimethylpyridin-3-yl)oxy)methyl)azetidin-1-yl)carbonyl)-7-fluoro-2H-1,4-benzoxazin-3(4H)-one]",102
11,"O=C1COc2cc(F)c(C(=O)N3CC(COc4ccc(OC(F)(F)F)cc4)C3)cc2N1 [Example 143, 7-fluoro-6-((3-((4-(trifluoromethoxy)phenoxy)methyl)azetidin-1-yl)carbonyl)-2H-1,4-benzoxazin-3(4H)-one]",100
12,"O=C1COc2cnc(C(=O)N3CCC(COc4ccc(C(F)(F)F)cc4Cl)CC3)cc2N1 [Example 144, 7-((4-((2-chloro-4-(trifluoromethyl)phenoxy)methyl)piperidin-1-yl)carbonyl)-1H-pyrido[3,4-b][1,4]oxazin-2(3H)-one]",98
13,"Cc1nc2c(cc1C(=O)N1CCC(COc3ccc(F)cc3Cl)CC1)NC(=O)CO2 [Example 145, 7-((4-((2-chloro-4-fluorophenoxy)methyl)piperidin-1-yl)carbonyl)-6-methyl-1H-pyrido[2,3-b][1,4]oxazin-2(3H)-one]",88
14,"CC(C)(C)c1ccccc1OCC1CN(C(=O)c2ccc3c(c2)NC(=O)CO3)C1 [Example 146, 6-((3-((2-tert-butylphenoxy)methyl)azetidin-1-yl)carbonyl)-2H-1,4-benzoxazin-3(4H)-one]",97
15,"O=C1COc2cc(F)c(C(=O)N3CC(COCc4ccc(Cl)cc4)C3)cc2N1 [Example 147, 6-((3-(((4-chlorobenzyl)oxy)methyl)azetidin-1-yl)carbonyl)-7-fluoro-2H-1,4-benzoxazin-3(4H)-one]",102
16,"O=C1COc2cc(F)c(C(=O)N3CC(COCc4ccccc4Cl)C3)cc2N1 [Example 148, 6-((3-(((2-chlorobenzyl)oxy)methyl)azetidin-1-yl)carbonyl)-7-fluoro-2H-1,4-benzoxazin-3(4H)-one]",102
17,"O=C1COc2cc(F)c(C(=O)N3CCC(COc4ccc(-c5ccccc5)cc4)CC3)cc2N1 [Example 149, 6-((4-((biphenyl-4-yloxy)methyl)piperidin-1-yl)carbonyl)-7-fluoro-2H-1,4-benzoxazin-3(4H)-one]",85
18,"O=C1COc2cc(F)c(C(=O)N3CCC(COc4cccc(-c5ccccc5)c4)CC3)cc2N1 [Example 150, 6-((4-((biphenyl-3-yloxy)methyl)piperidin-1-yl)carbonyl)-7-fluoro-2H-1,4-benzoxazin-3(4H)-one]",100
19,"Cc1nc2cc(OCC3CN(C(=O)c4cc5c(cc4F)OCC(=O)N5)C3)ccc2s1 [Example 151, 7-fluoro-6-((3-(((2-methyl-1,3-benzothiazol-5-yl)oxy)methyl)azetidin-1-yl)carbonyl)-2H-1,4-benzoxazin-3(4H)-one]",92
20,"Cc1nc2ccc(OCC3CN(C(=O)c4cc5c(cc4F)OCC(=O)N5)C3)cc2s1 [Example 152, 7-fluoro-6-((3-(((2-methyl-1,3-benzothiazol-6-yl)oxy)methyl)azetidin-1-yl)carbonyl)-2H-1,4-benzoxazin-3(4H)-one]",101
21,"Cc1nc2ccc(OCC3CN(C(=O)c4cc5c(cc4F)OCC(=O)N5)C3)cc2o1 [Example 153, 7-fluoro-6-((3-(((2-methyl-1,3-benzoxazol-6-yl)oxy)methyl)azetidin-1-yl)carbonyl)-2H-1,4-benzoxazin-3(4H)-one]",100
22,"O=C1COc2cc(F)c(C(=O)N3CC(COc4ccc5c(c4)CCC5)C3)cc2N1 [Example 154, 6-((3-((2,3-dihydro-1H-inden-5-yloxy)methyl)azetidin-1-yl)carbonyl)-7-fluoro-2H-1,4-benzoxazin-3(4H)-one]",95
23,"O=C1COc2cc(F)c(C(=O)N3CC(COc4ccc5c(c4)CCO5)C3)cc2N1 [Example 155, 6-((3-((2,3-dihydro-1-benzofuran-5-yloxy)methyl)azetidin-1-yl)carbonyl)-7-fluoro-2H-1,4-benzoxazin-3(4H)-one]",101
24,"O=C1COc2cc(F)c(C(=O)N3CC(COc4ccc5[nH]ncc5c4)C3)cc2N1 [Example 156, 7-fluoro-6-((3-((1H-indazol-5-yloxy)methyl)azetidin-1-yl)carbonyl)-2H-1,4-benzoxazin-3(4H)-one]",100
25,"O=C1COc2cc(F)c(C(=O)N3CC(COc4ccc5cn[nH]c5c4)C3)cc2N1 [Example 157, 7-fluoro-6-((3-((1H-indazol-6-yloxy)methyl)azetidin-1-yl)carbonyl)-2H-1,4-benzoxazin-3(4H)-one]",100
26,"O=C1COc2cc(F)c(C(=O)N3CC(COc4ccc(F)c(F)c4)C3)cc2N1 [Example 158, 6-((3-((3,4-difluorophenoxy)methyl)azetidin-1-yl)carbonyl)-7-fluoro-2H-1,4-benzoxazin-3(4H)-one]",103
